This is an account of results in patent publication US6716858B1, “Methods for inhibiting diabetic complications” (Kansas University Medical Center, priority 1995, dated 2004).

In data set [1] the test system is AGE formation during uninterrupted glycation of human methemoglobin (Hb) by ribose. Kind of data set: Uninterrupted ribose glycation assay, Hb. It counts as biochemical. Conditions: 0.05 M ribose, 3 weeks. The method, then: ELISA detection of AGE products. The general method of Engvall (1981, Methods Enzymol. 70:419-439) was used to perform the ELISA. Typically, glycated protein samples were diluted to approximately 1.5 ug/ml in 0.1 M sodium carbonate buffer of pH 9.5 to 9.7. The protein was coated overnight at room temperature onto 96-well polystyrene plates by pippetting 200 ul of the protein solution in each well (0.3 ug/well). After coating, the protein was washed from the wells with a saline solution containing 0.05% Tween-20. The wells were then blocked with 200 ul of 1% casein in carbonate buffer for 2 h at 37° C. followed by washing. […] In order to minimize background readings, antibodies R479 used to detect glycated RNase were raised against glycated BSA, and antibodies R618 used to detect glycated BSA and glycated Hb were raised against glycated RNase. […] The p-nitrophenylphosphate substrate solution was then added (200 ul/well) to the plates, with the absorbance of the released p-nitrophenolate being monitored at 410 nm with a Dynatech MR 4000 microplate reader.
Uninterrupted ribose glycation assays Bovine serum albumin, ribonuclease A, and human hemoglobin were incubated with ribose at 37° C. in 0.4 M sodium phosphate buffer of pH 7.5 containing 0.02% sodium azide. […] Aliquots were taken and immediately frozen until analyzed by ELISA at the conclusion of the reaction. […]

A short description of data set [2]: Metabolic conversions and bioavailability of pyridoxamine, plasma B6 vitamers by HPLC. It counts as in vivo, rat. Conditions: 25 mg/kg/day pyridoxamine in drinking water, after 48 hours; n=4. The method, then:
In addition to the glycated albumin studies, we carried out an investigation of the bioavailability of pyridoxamine when introduced through drinking water, and its possible redistribution into the vitamin B6 pool. Determination of the common B6 vitamers in plasma was carried out by HPLC methods as described below. Rats (n=4) were kept in standard cages as in the other experiments and were given pyridoxamine at 25 mg/kg/day for 48 hours, following which blood samples were withdrawn intra-cardially for serum analysis of the B6 vitamers. The concentrations were compared to endogenous B6 vitamer levels of control rats.
The procedures of Sampson and O° Connor (Nutrition Res. 9:259-272 (1989)) and Sharma and Dakshinamurti (Sampson and O° Connor J Nutr 119:1940-8, (1989) Sharma and Dakshinamurti, J Chromatogr 578:45-51, (1992)) were followed, using a Shimadzu HPLC with RF-551 fluorescence monitor. Excitation was at 328 nm and emission was followed at 393 nm. An Ultremex C18 guard column (30×4.6 mm, 5 micron particle size) (Phenomenex) preceded an Ultremex C18 ion-pair column (octadecylsilane, 150×4.6 mm, 3 micron particle size) (Phenomenex). Solvent A contained 0.033 M phosphoric acid and 0.008 M 1-octanesulfonic acid, adjusted to pH 2.2 with 6 N KOH. Solvent B contained 0.033 M phsophoric acid and 10% (v/v) 2-propanol, adjusted to pH 7.5 with 6 N KOH. […]

`Cc1ncc(CO)c(CN)c1O` [pyridoxamine]: the “inhibition of overall kinetics of AGE formation from ribose” value in data set [1] is “showed the greatest inhibition at concentrations of 3 mM and above”. Besides, in data set [2], the “elevation of plasma pyridoxamine, steady state to endogenous level” value is reported as “approximately 300 fold”.
